Assay results reported in patent US20210047297A1, “4-(3-AMINO-6-FLUORO-1H-INDAZOL-5-YL)-1,2,6-TRIMETHYL-1,4-DIHYDROPYRIDINE-3,5-DIC ARBONITRILE COMPOUNDS FOR TREATING HYPERPROLIFERATIVE DISORDERS” (Bayer Pharma Aktiengesellschaft, priority 2018, published 2021).
pIC50: −log10 of the molar value.

Target: T1, GST-AMPKα2/ß1/γ1 complex (full-length human AMPKα2) (Homo sapiens, UniProt P54619+P54646+Q9Y478)
T1 construct: purchased Carna Biosciences 02-114; host or cells: baculovirus expression system
Experiment: AMPK high ATP assay (TR-FRET-based AMPK activity inhibition assay)
Type: biochemical
Settings: ATP concentration of 1 mM; median; read-out: AMPK high ATP assay IC50 [mol/l] (median)
Protocol: AMPK inhibitory activity of compounds of the present invention at an ATP concentration of 1 mM was quantified employing the TR-FRET-based AMPK activity inhibition assay as described in the following paragraphs.
Recombinant fusion protein of N-terminal Glutathion-S-Transferase (GST) and full-length human AMPKα2 [1-552(end) amino acids of accession number NP_006243.2] co-expressed with GST-PRKAB1 [1-270(end) amino acids of accession number NP_006244.2] and PRKAG1 [1-331(end) amino acids of accession number NP_002724.1] using a baculovirus expression system, purified as GST-AMPKα2/ß1/γ1 complex by using glutathione sepharose chromatography, activated with His-tagged CaMKK1 and subsequently purified by using glutathione sepharose chromatography, was purchased from Carna Biosciences (product number 02-114) and used as kinase. As substrate for the kinase reaction biotinylated peptide biotin-Ahx-HMRSAMSFAEPG (C-terminus in amide form) was used which can be purchased e.g. form the company Biosyntan (Berlin-Buch, Germany). For the assay 50 nl of a 100 fold concentrated solution of the test compound in DMSO was pipetted into either a black low volume 384 well microtiter plate or a black 1536 well microtiter plate (both Greiner Bio-One, Frickenhausen, Germany), 2 μl of a solution of GST-AMPKα2/ß1/γ1 in aqueous assay buffer [50 mM Hepes pH 7.5, 10 mM MgCl2, 5 mM β-glycerophosphate, 2.5 mM dithiothreitol (DTT), 0.5 mM EGTA, 0.01% (w/v) bovine γ-globulin (Sigma-Aldrich, #G5009), 0.01% (v/v) Triton X-100 (Sigma-Aldrich, #T9284)] were added and the mixture was incubated for 15 min at 22° C. to allow pre-binding of the test compounds to the enzyme before the start of the kinase reaction. Then the kinase reaction was started by the addition of 3 μl of a solution of adenosine-tri-phosphate (ATP, 1.67 mM=>final conc. in the 5 μl assay volume is 1 mM), adenosine-mono-phosphate (AMP, 3.33 μM=>final conc. in the 5 μl assay volume is 2 μM), and substrate (0.83 μM=>final conc. in the 5 μl assay volume is 0.5 μM) in assay buffer and the resulting mixture was incubated for a reaction time of 30 min at 22° C. The concentration of GST-AMPK α2/ß1/γ1 was adjusted depending of the activity of the enzyme lot and was chosen appropriate to have the assay in the linear range, a typical concentration was 0.08 nM. The reaction was stopped by the addition of 3 μl of a solution of TR-FRET detection reagents (0.2 μM streptavidine-XL665 [Cisbio Bioassays, Codolet, France] and 3.33 nM anti-phosho-Serine antibody [Merck Millipore, “STK antibody”, cat. #35-002] and 3.33 nM anti mouse IgG-Tb cryptate, a Terbium-cryptate labelled anti-mouse IgG antibody [Cisbio Bioassays, Codolet, France] in an aqueous EDTA-solution (166.7 mM EDTA, 0.06 (w/v) bovine serum albumin in 50 mM HEPES pH 7.5).
The resulting mixture was incubated 1 h at 22° C. to allow the formation of complex between the phosphorylated biotinylated peptide and the detection reagents. Subsequently the amount of phosphorylated substrate was evaluated by measurement of the resonance energy transfer from the Tb-cryptate to the streptavidine-XL665. Therefore, the fluorescence emissions at 620 nm and 665 nm after excitation at 350 nm was measured in a TR-FRET reader, e.g. a Pherastar FS (BMG Labtechnologies, Offenburg, Germany) or a Viewlux (Perkin-Elmer). The ratio of the emissions at 665 nm and at […] was taken as the measure for the amount of phosphorylated substrate. The data were normalised (enzyme reaction without inhibitor=0 inhibition, all other assay components but no enzyme=100% inhibition).

T1 sequence (P54646 whole entry): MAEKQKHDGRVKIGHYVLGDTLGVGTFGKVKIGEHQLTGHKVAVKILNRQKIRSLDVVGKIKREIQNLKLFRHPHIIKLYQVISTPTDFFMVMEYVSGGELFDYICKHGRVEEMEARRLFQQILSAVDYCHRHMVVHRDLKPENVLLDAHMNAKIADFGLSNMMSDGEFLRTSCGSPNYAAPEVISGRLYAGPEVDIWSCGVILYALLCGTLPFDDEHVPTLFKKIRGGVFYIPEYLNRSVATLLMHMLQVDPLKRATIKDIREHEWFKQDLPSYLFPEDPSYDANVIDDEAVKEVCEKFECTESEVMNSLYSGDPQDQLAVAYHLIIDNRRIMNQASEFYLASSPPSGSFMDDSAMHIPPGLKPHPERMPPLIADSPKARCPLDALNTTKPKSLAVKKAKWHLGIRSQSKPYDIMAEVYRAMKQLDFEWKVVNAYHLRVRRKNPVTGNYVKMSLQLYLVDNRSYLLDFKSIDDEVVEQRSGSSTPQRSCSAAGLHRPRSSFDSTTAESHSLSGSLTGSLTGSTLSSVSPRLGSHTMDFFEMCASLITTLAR
T1 sequence (Q9Y478 whole entry partner): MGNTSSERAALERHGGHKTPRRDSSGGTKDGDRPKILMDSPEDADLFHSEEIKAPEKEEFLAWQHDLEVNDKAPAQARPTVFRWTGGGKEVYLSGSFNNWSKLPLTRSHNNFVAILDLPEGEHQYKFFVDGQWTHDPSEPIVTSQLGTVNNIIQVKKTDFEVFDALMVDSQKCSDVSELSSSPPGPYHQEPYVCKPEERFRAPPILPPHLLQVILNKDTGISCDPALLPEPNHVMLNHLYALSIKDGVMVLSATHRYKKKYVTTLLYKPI
T1 sequence (P54619 whole entry partner): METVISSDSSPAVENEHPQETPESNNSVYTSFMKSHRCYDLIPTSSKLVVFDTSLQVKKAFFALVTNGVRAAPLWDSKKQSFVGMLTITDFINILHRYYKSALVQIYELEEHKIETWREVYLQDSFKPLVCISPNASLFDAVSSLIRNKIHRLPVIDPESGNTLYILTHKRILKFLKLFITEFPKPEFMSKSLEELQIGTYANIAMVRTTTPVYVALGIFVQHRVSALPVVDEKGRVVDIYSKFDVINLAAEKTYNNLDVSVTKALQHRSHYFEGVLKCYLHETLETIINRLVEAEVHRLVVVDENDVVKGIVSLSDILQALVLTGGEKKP

SMILES | pIC50
CC1=C(C#N)C(c2cc3c(NC(=O)c4ccc(OCCN5CCCC5)cc4Cl)n[nH]c3c(C)c2F)C(C#N)=C(C)N1C [Example 20, 2-chloro-N-[5-(3,5-dicyano-1,2,6-trimethyl-1,4-dihydropyridin-4-yl)-6-fluoro-7-methyl-1H-indazol-3-yl]-4-[2-(pyrrolidin-1-yl)ethoxy]benzamide] | 9.18
COC(=O)C12C3C4C1C1C2C3C41C(=O)Nc1n[nH]c2c(C)c(F)c(C3C(C#N)=C(C)N(C)C(C)=C3C#N)cc12 (centres unmarked) [Example 22, methyl 4-{[5-(3,5-dicyano-1,2,6-trimethyl-1,4-dihydropyridin-4-yl)-6-fluoro-7-methyl-1H-indazol-3-yl]carbamoyl}cubane-1-carboxylate] | 7.18
CC1=C(C#N)C(c2cc3c(NC(=O)C45C6C7C4C4C5C6C74C(=O)N4CCC4)n[nH]c3c(C)c2F)C(C#N)=C(C)N1C (centres unmarked) [Example 23, 4-(azetidine-1-carbonyl)-N-[5-(3,5-dicyano-1,2,6-trimethyl-1,4-dihydropyridin-4-yl)-6-fluoro-7-methyl-1H-indazol-3-yl]cubane-1-carboxamide] | 6.98
CC1=C(C#N)C(c2cc3c(NC(=O)C45C6C7C4C4C5C6C74C(=O)N4CCN(C)CC4)n[nH]c3c(C)c2F)C(C#N)=C(C)N1C (centres unmarked) [Example 24, N-[5-(3,5-dicyano-1,2,6-trimethyl-1,4-dihydropyridin-4-yl)-6-fluoro-7-methyl-1H-indazol-3-yl]-4-(4-methylpiperazine-1-carbonyl)cubane-1-carboxamide] | 7.22
C=Cc1c(F)c(C2C(C#N)=C(C)N(C)C(C)=C2C#N)cc2c(NC(=O)c3cc(C)nn3CC)n[nH]c12 [Example 25, N-[5-(3,5-dicyano-1,2,6-trimethyl-1,4-dihydropyridin-4-yl)-7-ethenyl-6-fluoro-1H-indazol-3-yl]-1-ethyl-3-methyl-1H-pyrazole-5-carboxamide] | 6.82
CCc1c(F)c(C2C(C#N)=C(C)N(C)C(C)=C2C#N)cc2c(NC(=O)c3c(F)cccc3F)n[nH]c12 [Example 26, N-[5-(3,5-dicyano-1,2,6-trimethyl-1,4-dihydropyridin-4-yl)-7-ethyl-6-fluoro-1H-indazol-3-yl]-2,6-difluorobenzamide] | 7.42
CCc1ccccc1C(=O)Nc1n[nH]c2c(CC)c(F)c(C3C(C#N)=C(C)N(C)C(C)=C3C#N)cc12 [Example 27, N-[5-(3,5-dicyano-1,2,6-trimethyl-1,4-dihydropyridin-4-yl)-7-ethyl-6-fluoro-1H-indazol-3-yl]-2-ethylbenzamide] | 7.23
CCc1c(F)c(C2C(C#N)=C(C)N(C)C(C)=C2C#N)cc2c(NC(=O)c3ccnn3C(C)C)n[nH]c12 [Example 28, N-[5-(3,5-dicyano-1,2,6-trimethyl-1,4-dihydropyridin-4-yl)-7-ethyl-6-fluoro-1H-indazol-3-yl]-1-(propan-2-yl)-1H-pyrazole-5-carboxamide] | 6.86
CCc1c(F)c(C2C(C#N)=C(C)N(C)C(C)=C2C#N)cc2c(NC(=O)c3c(Cl)cnn3C)n[nH]c12 [Example 29, 4-chloro-N-[5-(3,5-dicyano-1,2,6-trimethyl-1,4-dihydropyridin-4-yl)-7-ethyl-6-fluoro-1H-indazol-3-yl]-1-methyl-1H-pyrazole-5-carboxamide] | 6.91
CCc1c(F)c(C2C(C#N)=C(C)N(C)C(C)=C2C#N)cc2c(NC(=O)c3cc(C)nn3CC)n[nH]c12 [Example 30, N-[5-(3,5-dicyano-1,2,6-trimethyl-1,4-dihydropyridin-4-yl)-7-ethyl-6-fluoro-1H-indazol-3-yl]-1-ethyl-3-methyl-1H-pyrazole-5-carboxamide] | 7.16
CCc1c(F)c(C2C(C#N)=C(C)N(C)C(C)=C2C#N)cc2c(NC(=O)c3ccccc3Cl)n[nH]c12 [Example 31, 2-chloro-N-[5-(3,5-dicyano-1,2,6-trimethyl-1,4-dihydropyridin-4-yl)-7-ethyl-6-fluoro-1H-indazol-3-yl]benzamide] | 7.15
CC1=C(C#N)C(c2cc3c(NC(=O)c4ccccc4Cl)n[nH]c3c(C(F)(F)F)c2F)C(C#N)=C(C)N1C [Example 32, 2-chloro-N-[5-(3,5-dicyano-1,2,6-trimethyl-1,4-dihydropyridin-4-yl)-6-fluoro-7-(trifluoromethyl)-1H-indazol-3-yl]benzamide] | 7.98
CCn1nc(C)cc1C(=O)Nc1n[nH]c2c(C(F)(F)F)c(F)c(C3C(C#N)=C(C)N(C)C(C)=C3C#N)cc12 [Example 33, N-[5-(3,5-dicyano-1,2,6-trimethyl-1,4-dihydropyridin-4-yl)-6-fluoro-7-(trifluoromethyl)-1H-indazol-3-yl]-1-ethyl-3-methyl-1H-pyrazole-5-carboxamide] | 7.60
CC1=C(C#N)C(c2ccc3[nH]nc(NC(=O)c4ccccc4)c3c2)C(C#N)=C(C)N1 [Reference Example 1, N-[5-(3,5-dicyano-2,6-dimethyl-1,4-dihydropyridin-4-yl)-1H-indazol-3-yl]benzamide, reference compound] | 6.55
